Source: PMC11067034 (Proceedings of the National Academy of Sciences of the …, 2024)

Molecular target: T1, human CTF18-RFC (ATPγS sites in CTF18/A, RFC2/B, RFC5/C, RFC4/D) (Homo sapiens, UniProt P35249+P35250+P40937+Q8WVB6)
T1 construct: gene CHTF18; heptameric CTF18-RFC2-5-DCC1-CTF8 from baculovirus/insect cells, intact complex; DCC1 and CTF8 invisible in maps; mixed with human PCNA (from E. coli BL21) and two-tailed DNA; with Replication factor C subunit 3; Sister chromatid cohesion protein DCC1; Chromosome transmission fidelity protein 8 homolog; Proliferating cell nuclear antigen
Experiment: cryo-EM structure
Format: binding
Conditions: Mg2+-coordinated; ATPase sites of CTF18, RFC2, RFC5 and RFC4 (arginine fingers from adjacent subunits); 0.5 mM ATPγS, PCNA and DNA, 1 mM Mg acetate, pH 7.5, room temperature

Nc1ncnc2c1ncn2[C@@H]1O[C@H](COP(=O)(O)OP(=O)(O)OP(O)(O)=S)[C@@H](O)[C@H]1O [ATPγS]
cryo-EM structure: We identified four ATPγS molecules in the AAA+ nucleotide binding pockets of subunits CTF18/A, RFC2/B, RFC5/C
